Measurements taken from the NIST ThermoML archive (doi:10.1016/j.jct.2010.07.002).

Columns and labels:
[1] = 101.33 kPa, Liquid, Vibrating tube method
[2] = isobaric coefficient of expansion; details: 101.33 kPa, Liquid, Vibrating tube densimeter
[3] = xn = mol fraction of the nth substance listed; details: 101.3 kPa, Liquid, Vibrating tube method

C[N+](=O)[O-] [nitromethane]
Details	isobaric coefficient of expansion, 278.15 K	isobaric coefficient of expansion, 288.15 K	isobaric coefficient of expansion, 298.15 K	isobaric coefficient of expansion, 308.15 K	isobaric coefficient of expansion, 318.15 K	mass density, 278.15 K [kg/m3]	mass density, 288.15 K [kg/m3]	mass density, 298.15 K [kg/m3]	mass density, 308.15 K [kg/m3]	mass density, 318.15 K [kg/m3]
[1]	–	–	–	–	–	1158.25	1144.75	1131.18	1117.53	1103.79
[2]	0.00116 1/K	0.00118 1/K	0.0012 1/K	0.00122 1/K	0.00125 1/K	–	–	–	–	–

C[N+](=O)[O-] [nitromethane] + O
mass density [kg/m3], [3]
Details	278.15 K	288.15 K	298.15 K	308.15 K	318.15 K
x2 = 0.001777	1158.13	1144.64	1131.07	1117.42	1103.68
x2 = 0.002859	1158.06	1144.56	1130.99	1117.35	1103.61
x2 = 0.004913	1157.94	1144.44	1130.87	1117.22	1103.48
x2 = 0.00632	1157.85	1144.35	1130.78	1117.13	1103.39
x2 = 0.008036	1157.74	1144.24	1130.67	1117.02	1103.29
x2 = 0.009712	1157.64	1144.14	1130.57	1116.92	1103.18
x2 = 0.01188	1157.5	1144	1130.43	1116.79	1103.06
x2 = 0.01446	1157.34	1143.85	1130.28	1116.63	1102.9
x2 = 0.01696	1157.19	1143.7	1130.13	1116.49	1102.75
x2 = 0.02033	1156.99	1143.5	1129.93	1116.29	1102.56
x2 = 0.02492	1156.72	1143.23	1129.66	1116.02	1102.3
x2 = 0.02911	1156.49	1143	1129.43	1115.79	1102.07

[2H]O[2H] [water-d2] + C[N+](=O)[O-]
mass density [kg/m3], [3]
Details	278.15 K	288.15 K	298.15 K	308.15 K	318.15 K
x1 = 0.001672	1158.21	1144.71	1131.14	1117.49	1103.75
x1 = 0.002547	1158.18	1144.68	1131.11	1117.46	1103.73
x1 = 0.004545	1158.14	1144.64	1131.07	1117.42	1103.67
x1 = 0.00623	1158.09	1144.59	1131.02	1117.37	1103.63
x1 = 0.008336	1158.04	1144.54	1130.97	1117.32	1103.58
x1 = 0.009484	1158.01	1144.51	1130.94	1117.3	1103.56
x1 = 0.01177	1157.96	1144.46	1130.89	1117.24	1103.5
x1 = 0.01408	1157.9	1144.4	1130.83	1117.19	1103.45
x1 = 0.01703	1157.83	1144.34	1130.77	1117.12	1103.38
x1 = 0.02007	1157.77	1144.27	1130.7	1117.06	1103.32
x1 = 0.02274	1157.71	1144.21	1130.64	1117	1103.26
x1 = 0.02464	1157.67	1144.17	1130.6	1116.97	1103.22
x1 = 0.02688	1157.62	1144.12	1130.55	1116.92	1103.17
